From patent US20260327250A1, “3-ETHYLAMINO-INDOLE DIMERS AS SEROTONERGIC AGENTS USEFUL FOR THE TREATMENT OF DISORDERS RELATED THERETO” (MINDSET PHARMA INC., priority 2022, published 2026)

Tests used:
in vitro = settings: rat, plasma
Method: The stock solution of test compound was prepared in DMSO and diluted at the final concentration of 200 μM.
• a. 2.5 μL of 200 μM or 1 mM test compound or control compound solution was spiked to 497.5 μL plasma to reach a final concentration of 1 μM or 5 μM. The final concentration of organic solvents was 0.5%. The assay was performed in duplicated. • b. The reaction samples were incubated at 37° C. at approximately 60 rpm in a water bath. • c. Aliquots of 50 μL were taken from the reaction samples at 0, 30, 60, 120, 180 and 240 minutes. The reaction was stopped by the addition of 7 volumes of cold acetonitrile containing internal standards (IS: 100 nM alprazolam, 200 nM imipramine, 200 nM labetalol and 2 μM ketoprofen). • d. All samples were vortexed for 2 minutes, followed by centrifugation at 3,220 g for 30 minutes to precipitate proteins. 100 μL of the supernatant was transferred to a new plate. The supernatant was diluted with ultrapure water according to the LC-MS signal response and peak shape.
Samples were Analyzed by LC-MS/MS. • LC system: Shimadzu • MS analysis: Triple Quad™ 6500+ from AB Inc (Canada) with an ESI interface • Column temperature: 40° C. • Column: Xselect® Hss T3 2.5μ (2.1×30 mm) coupled with preguard column • Mobile phase: 0.1% formic acid in water (A) and 0.1% formic acid in acetonitrile (B)
All calculations were carried out using Microsoft Excel. Remaining percentages of parent compounds at each time point were estimated by determining the peak area ratios from extracted ion chromatograms.

5-HT2A = settings: rats, 5-HT2A or 5-HT1A antagonists; cited from earlier work
[1] = test system: brain's default mode network; settings: humans, intravenous; cited from earlier work
[2] = humans, controlled setting; cited from earlier work

| SMILES | remaining at 0.5 h (in vitro) [%] | remaining at 1 h (in vitro) [%] | remaining at 2 h (in vitro) [%] | remaining at 3 h (in vitro) [%] | remaining at 4 h (in vitro) [%] | drug discrimination (5-HT2A) | oscillatory power [1] | adverse effect [2] |
| --- | --- | --- | --- | --- | --- | --- | --- | --- |
| CN(C)CCc1c[nH]c2cccc(OC(=O)CCCC(=O)Oc3cccc4[nH]cc(CCN(C)C)c34)c12 [Compound I-24, Bis(3-(2-(dimethylamino)ethyl)-1H-indol-4-yl) glutarate] | 0 | 0 | 0 | 0 | 0 | – | – | – |
| CN(C)CCc1c[nH]c2cccc(OP(=O)(O)O)c12 [Psilocybin] | – | – | – | – | – | 5-HT2A antagonists, but not 5-HT1A antagonists, prevented rats from recognizing psilocybin | decreases in oscillatory power in areas of the brain's default mode network | transient, delayed headache |
